Values of other authors in US20220296511A1, “COMPOSITIONS FOR DELIVERY OF DRUG COMBINATIONS TO TREAT LUNG DISEASE” (BOARD OF REGENTS, THE UNIVERSITY OF TEXAS SYSTEM, priority 2021, published 2022).
Read-outs that look alike come from different tables or passages of the source.

Assays:
[1] = rats, 50 mg/mL MFF suspension for nebulization
[2] = phase 3 trial
[3] = 150 mg oral dose
[4] = not given; remark: listed apart in the source
[5] = not given; remark: listed apart in the source

## COc1c(C)c2c(c(O)c1C/C=C(\C)CCC(=O)O)C(=O)OC2 [mycophenolic acid]
[1]
  lung concentration of mycophenolic acid as % of serum concentration: ~30%
In vivo
  therapeutic range: 1.0 to 3.5 µg/mL
oral
  maximum plasma concentration decreased by food: 40%

## COC(=O)c1ccc2c(c1)NC(=O)/C2=C(\Nc1ccc(N(C)C(=O)CN2CCN(C)CC2)cc1)c1ccccc1 [nintedanib]
[2]; most common adverse reaction
  diarrhea reported: 66.9%
[2]; nintedanib group
  reduction of FVC: −80.0 mL per year
[3]
  half-life: 9.49 h
  plasma concentration: 0.12 ng/mL/mg

## Cc1ccc(=O)n(-c2ccccc2)c1 [pirfenidone]
[4]; 100 mg aerosol pirfenidone
  aerosol epithelial lining fluid (ELF) concentration relative to 801 mg oral: 35 times
[4]; 100 mg inhalation dose
  systemic exposure less than the oral delivery: 15 fold
[5]; 801 mg oral dose
  plasma concentration: 5 µg/mL
[5]; 801 mg oral dose, worked out from plasma concentration
  lung concentration: 0.7 µg/g
[5]; IV dose 40 mg/kg
  lung tissue concentration as percentage of plasma concentration: nine
[5]; oral
  pirfenidone decreased by food: 50%
